Experimental findings from patent US20090286745A1, “INHIBITION OF ALPHA-SYNUCLEIN AGGREGATION” (Zapaloid Limited, priority 2006, published 2009) are described below.

The assay addresses α-synuclein (Homo sapiens, UniProt P37840). As to the kind of experiment: Kinetic thioflavin T aggregation assay of ASYN in TBS. Type of assay: biochemical. As to conditions: for increase in ThT signal compared to ASYN only: timeframe of the assay 48 h. The protocol: Kinetic ThT assays were performed by adding ThT directly to the sample at time=0. A 2.5 mM ThT stock solution was made up in the buffer that was used in the aggregation experiment, filtered through a […] Millex GV filter and diluted to 62.5 μM by adding 5 μl to final sample volume of 200 μl in a 96-well polypropylene plate. The increase in fluorescence over time as a result of amyloid formation was measured in a Biotek Synergy HT plate reader at 37° C. with shaking. Cut off filters were used for exitation at 440/30 nm and emission at 485/20 nm. Readings were every 10 minutes with shaking for 500 seconds before each reading.
Aggregation assays were carried out with 50 μM ASYN and 100 μM inhibitor with 50 mM tris and 150 mM NaCl and 20 μM Thioflavin T. The reaction volume was 200 μL. Each reaction was set up in a 96 well polypropylene plate with ASYN only and buffer only controls. The reactions were incubated at 37 C with shaking for 48 hours and aggregation was monitored by reading thioflavin T fluorescence as described above.
The aggregation inhibition properties of ZP-0154 and ZP-0155 were tested in kinetic ThT assays in TBS as described above.
All peptides were tested for inhibition of ASYN aggregation in TBS as described above and the kinetic traces were fit using Zyentiafit software which fits the data to a Sigmoidal function f(x)=k+A/(1+exp(−b(t−t0))) from which the lag time, rate of aggregation and total change in ThT fluorescence may be calculated.
A kinetic thioflavin T assay to measure aggregation was set up with 50 uM α-synuclein in TBS and a molar ratio of 1:2 of α-synuclein:inhibitor). Reactions were incubated for 48 hours at 37° C. with shaking and thioflavin T fluorescence was measured every 10 minutes. The kinetic traces were fit using Zyentiafit software which fits the data to a Sigmoidal function f(x)=k+A/(1+exp(−b(t−t0))) from which the lag time, rate of aggregation and total change in ThT fluorescence may be calculated.

Setting [1] is: Table 4 interactomer peptides, 50 μM ASYN, 100 μM inhibitor, 37 C, 48 hours, sigmoidal fit.
Where [2] appears, read: Table 5 structure stabilising peptides, 50 uM α-synuclein, 1:2 α-synuclein:inhibitor, 48 hours, 37° C., relative to α-synuclein only.

On to Ac-qpsvli-NH2 [ZP-0207], for which, under setting [1], the “% decrease in ThT fluorescence” value came out at 5.5%, the “% decrease in rate of aggregation” value stood at 3.6% and the “% increase in Lag phase” value came to 29.7%.

For NH3-qykvli-NH2 [ZP-0222], under setting [1], the “% decrease in ThT fluorescence” value was found to be 42.3%, the “% decrease in rate of aggregation” value is given as 34.3% and the “% increase in Lag phase” value is given as 7.7%.

Regarding Ac-hhtivk-NH2 [ZP-0179], under setting [1], the “% decrease in ThT fluorescence” value is reported as 0.6%, the “% decrease in rate of aggregation” value was −0.6% and the “% increase in Lag phase” value came to 30.4%.

Regarding NH3-qysvlt-NH2 [ZP-0230], under setting [1], the “% decrease in ThT fluorescence” value is reported as 10.9%, the “% decrease in rate of aggregation” value was 15.9% and the “% increase in Lag phase” value was 32.4%.

As to Ac-hhviva-NH2 [ZP-0158], under setting [1], the “% decrease in ThT fluorescence” value is recorded as 15.1%, the “% decrease in rate of aggregation” value amounted to 18.4% and the “% increase in Lag phase” value was 32.5%.

As for Ac-hhvvva-NH2 [ZP-0159], under setting [1], the “% decrease in ThT fluorescence” value is 19.8%, the “% decrease in rate of aggregation” value turned out to be 18.6% and the “% increase in Lag phase” value stood at 36.6%.

Regarding Ac-hhvkva-NH2 [ZP-0161], under setting [1], the “% decrease in ThT fluorescence” value is listed as −5.9%, the “% decrease in rate of aggregation” value turned out to be 2.3% and the “% increase in Lag phase” value was found to be 19.7%.

With NH3-qysvlv-NH2 [ZP-0229], under setting [1], the “% decrease in ThT fluorescence” value is reported as 17.8%, the “% decrease in rate of aggregation” value came to 24.3% and the “% increase in Lag phase” value amounted to 33.5%.

Take Ac-hhvlva-NH2 [ZP-0160]: under setting [1], the “% decrease in ThT fluorescence” value is 8.8%, the “% decrease in rate of aggregation” value came to 10.5% and the “% increase in Lag phase” value is given as 36.5%.

Take Ac-hhtivv-NH2 [ZP-0175]: under setting [1], the “% decrease in ThT fluorescence” value is recorded as 21.9%, the “% decrease in rate of aggregation” value was determined as 16.8% and the “% increase in Lag phase” value was found to be 89.7%.

Consider Ac-drysvli-NH2 [ZP-0214], for which, under setting [1], the “% decrease in ThT fluorescence” value came out at 20.4%, the “% decrease in rate of aggregation” value is listed as 4.8% and the “% increase in Lag phase” value is recorded as −12.6%.

With NH3-qysvli-NH2 [ZP-0215], under setting [1], the “% decrease in ThT fluorescence” value was determined as 27.6%, the “% decrease in rate of aggregation” value was determined as 17.5% and the “% increase in Lag phase” value is reported as 3.1%.

With Ac-hhtlvv-NH2 [ZP-0186], under setting [1], the “% decrease in ThT fluorescence” value is listed as 30.7%, the “% decrease in rate of aggregation” value stood at 29.7% and the “% increase in Lag phase” value came out at 16.1%.

As for Ac-hhvivv-NH2 [ZP-0169], under setting [1], the “% decrease in ThT fluorescence” value is on record as −0.5%, the “% decrease in rate of aggregation” value was −13.3% and the “% increase in Lag phase” value is 26.1%.

NH3-pysvli-NH2 [ZP-0228]: under setting [1], the “% decrease in ThT fluorescence” value turned out to be 40.8%, the “% decrease in rate of aggregation” value is recorded as 46.2% and the “% increase in Lag phase” value was determined as 38.2%.

Turning to Ac-qyspli-NH2 [ZP-0205], under setting [1], the “% decrease in ThT fluorescence” value is listed as 16.6%, the “% decrease in rate of aggregation” value was −11.9% and the “% increase in Lag phase” value is reported as 30.6%.

For Ac-egkgegk-NH2 [ZP-0241], under setting [2], the “% decrease in ThT fluorescence” value is reported as 6.1%, the “% decrease in rate of aggregation” value came to 10.9% and the “% increase in Lag phase” value amounted to 16.6%.

Regarding Ac-qykvli-NH2 [ZP-0202], under setting [1], the “% decrease in ThT fluorescence” value is given as 53.5%, the “% decrease in rate of aggregation” value came to 54.5% and the “% increase in Lag phase” value is −28.8%.

In the case of Ac-hhvivp-NH2 [ZP-0168], under setting [1], the “% decrease in ThT fluorescence” value is given as −8.6%, the “% decrease in rate of aggregation” value is given as −5.4% and the “% increase in Lag phase” value came out at 29.8%.

Turning to Ac-hhtevy-NH2 [ZP-0193], under setting [1], the “% decrease in ThT fluorescence” value worked out at 8.7%, the “% decrease in rate of aggregation” value is −15.8% and the “% increase in Lag phase” value stood at 31.4%.

With Ac-hpviva-NH2 [ZP-0164], under setting [1], the “% decrease in ThT fluorescence” value was 3.7%, the “% decrease in rate of aggregation” value is −2.3% and the “% increase in Lag phase” value is reported as 43.0%.

As for Ac-hhtlva-NH2 [ZP-0181], under setting [1], the “% decrease in ThT fluorescence” value came out at 22.8%, the “% decrease in rate of aggregation” value is given as −1.2% and the “% increase in Lag phase” value was 29.4%.

For Ac-hhvivw-NH2 [ZP-0172], under setting [1], the “% decrease in ThT fluorescence” value is given as −1.7%, the “% decrease in rate of aggregation” value is reported as 6.9% and the “% increase in Lag phase” value worked out at 28.1%.

On to Ac-hhvivy-NH2 [ZP-0171], for which, under setting [1], the “% decrease in ThT fluorescence” value stood at 13.9%, the “% decrease in rate of aggregation” value turned out to be 13.2% and the “% increase in Lag phase” value came out at 43.6%.

As to Ac-kgegk-NH2 [ZP-0231], under setting [2], the “% decrease in ThT fluorescence” value was 4.3%, the “% decrease in rate of aggregation” value is on record as 2.7% and the “% increase in Lag phase” value came out at 11.2%.

Turning to Ac-hhveva-NH2 [ZP-0162], under setting [1], the “% decrease in ThT fluorescence” value is reported as 6.3%, the “% decrease in rate of aggregation” value amounted to 6.6% and the “% increase in Lag phase” value was found to be 33.4%.

With Ac-qypvli-NH2 [ZP-0206], under setting [1], the “% decrease in ThT fluorescence” value came to 3.3%, the “% decrease in rate of aggregation” value is reported as 8.4% and the “% increase in Lag phase” value was found to be 25.9%.

For the substance Ac-hhtvva-NH2 [ZP-0180], under setting [1], the “% decrease in ThT fluorescence” value turned out to be 19.8%, the “% decrease in rate of aggregation” value is given as 18.4% and the “% increase in Lag phase” value is on record as 30.3%.

NMP-NMP-NMP-NMP-kvfgtaa-NH2 [ZP-0154]: the “increase in ThT signal compared to ASYN only” value (50 μM ASYN, 100 μM inhibitor) was “No significant increase”.

Regarding Ac-rgdgd-NH2 [ZP-0247], under setting [2], the “% decrease in ThT fluorescence” value is listed as 12.2%, the “% decrease in rate of aggregation” value turned out to be 6.7% and the “% increase in Lag phase” value worked out at 10.7%.

NH3-qytvli-NH2 [ZP-0221]: under setting [1], the “% decrease in ThT fluorescence” value stood at 24.7%, the “% decrease in rate of aggregation” value amounted to 22.8% and the “% increase in Lag phase” value is −22.4%.

Regarding NMP-NMP-NMP-kvfgtaa-NH2 [ZP-0155], the “increase in ThT signal compared to ASYN only” value (50 μM ASYN, 100 μM inhibitor) was “No significant increase”.

In the case of Ac-hhvivt-NH2 [ZP-0170], under setting [1], the “% decrease in ThT fluorescence” value came out at 24.5%, the “% decrease in rate of aggregation” value came out at 29.3% and the “% increase in Lag phase” value was determined as 29.4%.

For the substance Ac-qysvpi-NH2 [ZP-0204], under setting [1], the “% decrease in ThT fluorescence” value worked out at 1.4%, the “% decrease in rate of aggregation” value is −5.6% and the “% increase in Lag phase” value is reported as 23.6%.

Take Ac-rdr-NH2 [ZP-0240]: under setting [2], the “% decrease in ThT fluorescence” value stood at 18.5%, the “% decrease in rate of aggregation” value is reported as −0.6% and the “% increase in Lag phase” value was 23.4%. Also, the “endpoint thioflavin T fluorescence (in words)” value (structure stabilising peptides, 48 hours) was “significant decrease”.

Turning to Ac-ekysvli-NH2 [ZP-0213], under setting [1], the “% decrease in ThT fluorescence” value came out at 25.6%, the “% decrease in rate of aggregation” value came to 12.9% and the “% increase in Lag phase” value is given as 29.4%.

Regarding Ac-rysvli-NH2 [ZP-0212], under setting [1], the “% decrease in ThT fluorescence” value turned out to be 51.1%, the “% decrease in rate of aggregation” value amounted to 44.9% and the “% increase in Lag phase” value is −14.4%.

Turning to Ac-hhttvy-NH2 [ZP-0194], under setting [1], the “% decrease in ThT fluorescence” value was found to be 11.6%, the “% decrease in rate of aggregation” value amounted to 7.7% and the “% increase in Lag phase” value came to 38.8%.
